“Also recorded” adds a separate entry of the source.
Columns and labels:
S. aureus [1] = test: Rapid kill method (10^8 cfu/ml S. aureus), 15 seconds, oral rinse base; type: cell-based
Description: Synergistic effect of botanical extracts and biguanides (Rapid kill method (108 S. aureus)): The antimicrobial effect of an oral rinse base, containing the ingredients described in table 10 below, were tested against a high concentration of bacteria. In a sterile culture tube, 0.1 ml of S. aureus (10^8 cfu/ml) was treated with 0.9 ml of test mouthrinse for 15 seconds. The reaction was stopped with Drug neutralizing Fluid (DNF) and then further diluted with the same media. 0.5 ml of the dilution was then plated on Tripticase Soy Agar (TSA) and incubated at 37° C. overnight. The colony counts were determined and the log 10 reduction from the control (phosphate-buffered saline (PBS) inoculated with the same culture) was calculated.

S. aureus [2] = test: ASTM E 2783-11 protocol, 15 seconds, ingredients in Base A (Example 16); type: cell-based; conditions: for Log reduction compared to control: ingredients in Base A; for synergistic activity with chlorhexidine (in words): Experiment 1, Base A
Description: The antimicrobial efficacy of a composition comprising biguanides and fennel oil, thyme oil/thymol and/or vanilla oil was tested against S. aureus (10^7 cfu/ml). […] In-vitro study Test organism: S. aureus (10^7 cfu/ml) […] These plates were incubated at 37° C. for 24 hours and the colony counts (cfu)/ml were determined.

[3] = 0.12% solutions, oral decontamination prior to mechanical intubation; cited from earlier work
[4] = use as oral antiseptic; cited from earlier work
[5] = tested on: human dennal, gingival and osteoblastic cell lines; conditions: cited from earlier work
[6] = tested on: murine fibroblasts cell lines; conditions: cited from earlier work
[7] = tested on: methicillin-resistant Staphylococcus aureus (“MRSA”); test: MRSA Rapid-Kill Assay (tube-dilution, US FDA-TFM, 15 second exposure); type: cell-based
P. aeruginosa = test: Agar-plate method: sample spread on TSA, 1 hr, then inoculated; log10 reduction; type: cell-based; conditions: Example 3
Description: For oral care products, PHMB is preferred because BAC can produce mucosal irritation. PHMB is effective against gram negative bacteria. Therefore P. aeruginosa which is a gram negative organism was used in these tests. An agar-plate method was used/0.5 ml of the test sample was spread on TSA plates and for control PBS was used in the plate. These plates were incubated for 1 hr in the incubator at temperature 37±1° C. After 1 hr, the plates were taken out of the incubator and inoculated with 0.5 ml of 1×10^3 cfu/ml culture of P. aeruginosa. The plates were incubated for 18-24 hrs at 37±1° C. The antibacterial activity was determined by calculating the difference in log 10 colony-forming units (cfu) between control and test samples (i.e., log 10 reduction).

[8] = Experiment 1, S. aureus 10^7 cfu/ml, T, B, F, V each 0.1 % w/w, CHG 0.12 % w/w
[9] = Experiment 2, S. aureus 10^7 cfu/ml, each 0.1 % w/w

Q: For `N=C(NCCCCCCNC(=N)NC(=N)Nc1ccc(Cl)cc1)NC(=N)Nc1ccc(Cl)cc1` [CHX (0.06%)], which “Log10 Growth” value (S. aureus [1]; Table 10, in oral rinse base, control growth 7.29) is on record?
A: The value was 5.60 log10.

Q: And the “Log10 Reduction” value (S. aureus [1]; Table 10, in oral rinse base, reduction from control (PBS))?
A: Its value is 1.69 log10.

Q: For `[H]/N=C(\N/C(=N/[H])NCCCCCCNC(=N)NC(=N)Nc1ccc(Cl)cc1)Nc1ccc(Cl)cc1` [Chlorhexidine (CHG)], which “Log reduction compared to control” value (S. aureus [2]; [8]) is on record?
A: Its value is 0.73 log.

Q: For `Cc1ccc(C(C)C)c(O)c1` [T (Thymol)], which “Log reduction compared to control” value (S. aureus [2]; [8]) is on record?
A: The value was 1.29 log.

Q: And the “Log reduction compared to control” value (S. aureus [2]; [9])?
A: Its value is 1.29 log.

Q: Which “synergistic antibacterial activity of botanical extracts and biguanides (in words)” value (S. aureus [1]; Example 10) does the source give for `[H]/N=C(\N/C(=N/[H])NCCCCCCNC(=N)NC(=N)Nc1ccc(Cl)cc1)Nc1ccc(Cl)cc1` [chlorhexidine] here?
A: The value was “did not show such synergism”.

Q: And the “risk of acquiring VAP” value [3]?
A: The value was “can reduce the risk of acquiring VAP”.

Q: And the adverse effects [4]?
A: Its adverse effects is “irritation of the oral mucosa, discoloration of teeth and altered taste perception”.

Q: And the cytotoxicity [5]?
A: The cytotoxicity was “cytotoxic”.

Q: What about the “synergistic activity with chlorhexidine (in words)” value (S. aureus [2]; 10^7 cfu/ml) of the same compound?
A: The value was “combination of either fennel seed oil and thymol or fennel seed oil, thymol and vanilla oil with chlorhexidine also exhibited synergistic activity”.

Q: What about the “synergistic activity with chlorhexidine (in words)” value (S. aureus [2]; 10^7 cfu/ml, listed as Chlorhexidine) of the same compound?
A: The value was “exhibits synergistic activity when combined with either thymol or basil oil”.

Q: What about the cytotoxicity [6] of the same compound?
A: Its cytotoxicity is “cytotoxic”.

Q: Which results are given for benzalkonium chloride [BAC]?
A: antibacterial activity, effect of combining actives (in words) ([7]; Example 1, actives in base formulation): enhanced the activity of essential oil mixtures containing thymol; antibacterial activity, effect of combining actives (in words) ([7]; Example 4): enhances the activity of essential oils (CN+LG+T); Log reduction from control growth ([7]; Table 1, MRSA, conc. active agent 0.13 % w/w): 0.05 log10; Log reduction from control growth ([7]; Table 2, MRSA, conc. active agent 0.13 % w/w): 0.05 log10; Log reduction from control growth ([7]; Table 5A, MRSA, conc. active agent 0.6 % w/w): 0.5 log10

Q: For pentanediol, which “antibacterial activity, effect of combining actives (in words)” value (“antibacterial activity, effect” for short) (P. aeruginosa) is on record?
A: Its value is “enhanced the activity of low concentrations of essential oils and lemon extract”.

Q: With polyhexamethylene biguanide [PHMB] as the compound, how does the “antibacterial activity, effect” value ([7]; Example 1, PHMB at 0.06%) read?
A: The value was “showed synergistic activity with essential oils”.

Q: What about the “Log reduction from control growth” value ([7]; Table 1, MRSA, conc. active agent 0.012 % w/w) of the same compound?
A: Its value is 0.4 log10.

Q: And the “Log reduction from control growth” value ([7]; Table 1, MRSA, conc. active agent 0.06 % w/w)?
A: The value was 3.1 log10.

Q: What about the “Log reduction from control growth” value ([7]; Table 2, MRSA, conc. active agent 0.012 % w/w) of the same compound?
A: The value was 0.4 log10.

Q: And the “Log reduction from control growth” value ([7]; Table 5B, MRSA, conc. active agent 0.06 % w/w)?
A: Its value is 4.0 log10.

Q: What about the “antibacterial activity, effect” value (P. aeruginosa) of the same compound?
A: Its value is “enhanced the activity of low concentrations of essential oils and lemon extract”.

Q: And the “synergistic activity with PHMB (in words)” value (S. aureus [2]; Experiment 2, Base A, 10^7 cfu/ml)?
A: Its value is “exhibited synergistic activity when combined with either thymol or vanilla oil; also recorded: combination of either fennel seed oil and thymol or fennel seed oil, thymol and vanilla oil with PHMB also exhibited synergistic activity”.

Q: What about the “Log reduction compared to control” value (S. aureus [2]; [9]) of the same compound?
A: Its value is 1.96 log.

From US20150265666A1, “BOTANICAL ANTIMICROBIAL COMPOSITIONS” (THE TRUSTEES OF COLUMBIA UNIVERSITY IN THE CITY OF NEW YORK, priority 2012, published 2015)
